Where two headings read alike, the source gives them in different places.
Tests used:
[1] = system: HSFA2 gene; assay: Expression level of HSFA2 gene in Arabidopsis (qPCR); format: in vivo, Arabidopsis thaliana; details: for fold induction at 10 nmol/cm3: Arabidopsis thaliana, 0.5 h, read-out: relative transcription level (fold), HSFA2 gene
Description: (§1) Total RNA was extracted using RNeasy Plant Mini Kit (Quiagen), and cDNA was successively synthesized using RevaTra Ace Kit (TOYOBO CO., LTD.).
(§2) HSFA2 gene and DREB2A gene were quantified using SYBR Green qPCR Mix (TOYOBO CO., LTD.), LineGene Real-time PCR detection system (BioFlux).
(§3) The primers used for each gene expression analysis are as described below.
Arabidopsis (Arabidopsis thaliana, Columbia-0) was exposed to the compound shown in Table 2 in a gaseous state (concentration 10 nmol/cm^3) for 30 min (temperature 23° C.), and the expression level of HSFA2 gene was analyzed.
(§4) Arabidopsis was seeded in artificial soil material “Jiffy-7” (SAKATA SEED CORPORATION), cultured for 14 hr in light period/10 hr in dark period at 23° C. for 2-3 weeks and used.

[2] = system: Arabidopsis (Arabidopsis thaliana, Columbia-0); assay: Survival rate of Arabidopsis after high temperature treatment; format: in vivo; details: gaseous state 10 nmol/cm^3 for 120 min, then 120 min at 40-45° C. in light; relative to non-exposure sample as 100(%)
Experimental: Arabidopsis (Arabidopsis thaliana, Columbia-0) was exposed to the compound shown in Table 3 in a gaseous state (concentration 10 nmol/cm^3) for 120 min, left standing for 120 min in an environmental control chamber (manufactured by NIPPON MEDICAL & CHEMICAL INSTRUMENTS CO., LTD.) set to 40-45° C. and in the presence of light (100 μmol/m^2·s), and the survival rate after lapse of 3 days was measured.
as §4
In Table 3, the survival rate is a relative value with the survival rate of a non-exposure sample (sample left standing at 45° C. for 120 min without exposure to the compound) as 100(%).

[3] = system: photochemical system II; assay: Photosynthesis activity (Fv/Fm) of Arabidopsis; format: in vivo, Arabidopsis thaliana; details: gaseous state 25 nmol/cm^3, 120 min, 25° C., light 100 μmol/m^2·s, dark adaptation 5 min
Experimental: The photosynthesis activity was measured using the maximum quantum yield (Fv/Fm) of photochemical system II as an index. Test plant object was subjected to dark adaptation (for 5 min), and Fv/Fm was measured using photosynthesis measuring apparatus Junior-PAM (Walz). The measurement was performed at least three times for different sites of the leaf and the averaged numerical value was taken as photosynthesis activity.
Arabidopsis (Arabidopsis thaliana, Columbia-0) was exposed to the compound shown in Table 4 in a gaseous, state (concentration 25 nmol/cm^3) for 120 min (temperature 25° C.) in the presence of light (100 μmol/m^2·s), subjected to a dark adaptation treatment for 5 min, and photosynthesis activity (Fv/Fm) was measured.
as §4

[4] = system: HSFA2 gene; assay: Expression level of HSFA2 gene in tomato (qPCR); format: in vivo, Solanum lycopersicum; details: tomato (Microtom), gaseous state 10 nmol/cm^3, 30 min, 25° C.; non-exposure as 1
Experimental: as §1, §2, §3
Tomato (Solanum lycopersicum, Microtom) was exposed to (E)-2-hexenal in a gaseous state (concentration 10 nmol/cm^3) for 30 min (temperature 25° C.), and the expression level of HSFA2 gene was analyzed to find 20.2-fold (relative transcription level with non-exposure to (E)-2-hexenal as 1).
The tomato was seeded in artificial soil material “Jiffy-7” (SAKATA SEED CORPORATION), cultured for 14 hr in light period/10 hr in dark period at 23° C. for 2-3 weeks and used.

[5] = system: HSP17.6-A; assay: Expression level of HSP gene HSP17.6-A in Arabidopsis (microarray); format: in vivo, Arabidopsis thaliana; details: gaseous state 10 nmol/cm^3, 30 min, 23° C., non-exposure as 1
Experimental: (§5) HSP gene was quantified by microarray analysis. The total RNA was extracted using RNeasy Plant Mini Kit (Quiagen), and double stranded cDNA was synthesized using Superscript Choice System (Life Technologies). cDNA was labeled with Cy3 by using NimbleGen One-color Labeling Kit (NimbleGen), and hybridized to DNA array (ATH6_60 mer_expr X4, NmibleGen) at 42° C. for 6 hr. DNA array was washed, Cy3 fluorescence intensity was measured by Axon GenePix 4000B scanner (NimbleGen) and quantified.
(§6) Arabidopsis (Arabidopsis thaliana, Columbia-0) was exposed to (E)-2-hexenal in a gaseous state (concentration 10 nmol/cm^3) for 30 min (temperature 23° C.), and the expression level of HSP genes (HSP17.6-C, HSP17.6-A) was analyzed.
as §4

[6] = system: HSFA2 gene; assay: Expression level of HSFA2 gene in rice (qPCR); format: in vivo, Oryza sativa; details: rice (Nipponbare), gaseous state 10 nmol/cm^3, 30 min, 25° C.; non-exposure as 1
Experimental: as §1, §2, §3
(§7) Rice (Oryza sativa, Nipponbare) was exposed to (E)-2-hexenal in a gaseous state (concentration 10 nmol/cm^3) for 30 min (temperature 25° C.), and the expression level of HSFA2 gene and DREB2A gene was analyzed. As a result, the expression level of HSFA2 gene was 3.55-fold (relative transcription level with non-exposure to (E)-2-hexenal as 1), and the expression level of DREB2A was 3.93-fold (relative transcription level with non-exposure to (E)-2-hexenal as 1).
(§8) The rice was seeded in artificial soil material “Jiffy-7” (SAKATA SEED CORPORATION), cultured for 14 hr in light period/10 hr in dark period at 23° C. for 2-3 weeks and used.

[7] = system: DREB2A gene; assay: Expression level of DREB2A gene in rice (qPCR); format: in vivo, Oryza sativa; details: rice (Nipponbare), gaseous state 10 nmol/cm^3, 30 min, 25° C.; non-exposure as 1
Experimental: as §1, §2, §3, §7, §8

[8] = system: HSP17.6-C; assay: Expression level of HSP gene HSP17.6-C in Arabidopsis (microarray); format: in vivo, Arabidopsis thaliana; details: gaseous state 10 nmol/cm^3, 30 min, 23° C., non-exposure as 1
Experimental: as §5, §6, §4

[9] = Arabidopsis, gaseous state 10 nmol/cm^3, 30 min, 23° C., relative to acetonitrile as 1

Row | photosynthesis activity (Fv/Fm) [3] | Compound | fold induction at 10 nmol/cm3 [1, 9] | further results
1 | – | CCC/C=C/C(C)=O [(E)-3-hepten-2-one] | 266 | survival rate (%) after 3 days [2]: 159%
2 | – | CCC/C=C/CO [(E)-2-hexenol, reference compound] | 0.735 | –
3 | 0.753 | CCCCCCC/C=C/C=O [(E)-2-decenal] | – | –
4 | 0.741 | CCCCCC/C=C/C=O [(E)-2-nonenal] | 488 | –
5 | – | n-hexenal [reference compound] | – | relative transcription level (fold), HSFA2 gene [1, 9]: 7.9 fold
6 | 0.748 | CCCC/C=C/C=O [(E)-2-heptenal] | 642 | –
7 | – | CCCCCC(C)=O [2-heptanone, reference compound] | 1.1 | –
8 | 0.745 | CC/C=C\CCCCC=O [(Z)-6-nonenal] | 270 | –
9 | 0.743 | CC/C=C\CCC=O [(Z)-4-heptenal] | 320 | –
10 | 0.710 | CC/C=C/C=O [(E)-2-pentenal] | 470 | –
11 | 0.732 | CCCCC/C=C/C=O [(E)-2-octenal] | 777 | –

Row | Compound | photosynthesis activity (Fv/Fm) [3] | fold induction at 10 nmol/cm3 [1, 9] | further results
12 | C=CC=O [2-propenal, reference compound] | 0.393 | – | –
13 | CC#N [acetonitrile, reference compound] | 0.729 | – | fold induction at 10 nmol/cm3 [1]: 1
14 | C/C=C/C=O [(E)-2-butenal] | 0.726 | – | relative transcription level (fold), HSFA2 gene [1, 9]: 469 fold; survival rate (%) after 3 days [2]: 140%
15 | CCC/C=C/C=O [(E)-2-hexenal] | 0.739 | – | relative transcription level, HSFA2 gene [4]: 20.2 fold; fold induction at 10 nmol/cm3 [1]: 377; Relative transcription level (fold) HSP17.6-A [5]: 36.3 fold; survival rate (%) after 3 days [2]: 170%; relative transcription level, HSFA2 gene [6]: 3.55 fold; relative transcription level, DREB2A gene [7]: 3.93 fold; Relative transcription level (fold) HSP17.6-C [8]: 45.9 fold

— patent US10874101B2, “Tolerance improving agent for plants” (PHYTOCHROME INC., priority 2014, dated 2020)
